# Assay results from PubChem BioAssay AID330 (DTP/NCI, 2004).
# Where “and” joins values, the source holds several entries; their conditions need not be identical. Equal values may be shown once. Toxic doses and inconclusive results are not listed. Numbered stars: 1 amine (or outer) side, 2 acyl side, 3 side chain; on linkers, the order of the positions; unused ones are H or OH. Peptide text beside a SMILES is read from it. ξ: configuration not given here. ξγGlu = O=C(O)C(CCC(=O)[*:2])N[*:1]
# Test system: P388 leukemia ip, CD2F1 mice, survival T/C
# Assay: NCI In Vivo Anticancer Drug Screen. Data for tumor model P388 Leukemia (intraperitoneal) in CD2F1 (CDF1) mice
# Conditions: endpoint: median survival time, higher = longer survival
# How it was run: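 Mice carrying the transplanted tumor received test compound or vehicle. Survival was recorded in each group, and the value is the treated-group measurement divided by that of the vehicle-treated control group.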
# [1] = dose: 60.0 mg/kg/injection, schedule: Q01DX005 (ip), vehicle: saline with Tween-80
# [2] = dose: 120.0 mg/kg/injection, schedule: Q01DX005 (ip), vehicle: saline with Tween-80
# [3] = dose: 240.0 mg/kg/injection, schedule: Q01DX005 (ip), vehicle: saline with Tween-80
# [4] = dose: 50.0 mg/kg/injection, schedule: Q01DX005 (ip), vehicle: saline with Tween-80
# [5] = dose: 100.0 mg/kg/injection, schedule: Q01DX005 (ip), vehicle: saline with Tween-80
# [6] = dose: 200.0 mg/kg/injection, schedule: Q01DX005 (ip), vehicle: saline with Tween-80
# [7] = dose: 100.0 mg/kg/injection, schedule: Q01DX009 (ip), vehicle: Klucel (hydroxypropylcellulose) (HPC)
# [8] = dose: 100.0 mg/kg/injection, schedule: Q04DX002 (ip), vehicle: saline with Tween-80
# [9] = dose: 200.0 mg/kg/injection, schedule: Q04DX002 (ip), vehicle: saline with Tween-80
smiles,measurement,setting,value
COc1ccc2cc3cccc[n+]3cc2c1,T/C,"dose: 0.19 mg/kg/injection, schedule: Q01DX005 (ip), vehicle: Klucel (hydroxypropylcellulose) (HPC)",100 % of control
same,T/C,"dose: 0.39 mg/kg/injection, schedule: Q01DX005 (ip), vehicle: Klucel (hydroxypropylcellulose) (HPC)",110 % of control
same,T/C,"dose: 0.78 mg/kg/injection, schedule: Q01DX005 (ip), vehicle: Klucel (hydroxypropylcellulose) (HPC)",108 % of control and 97 % of control
COc1cc(OC)c(Cc2cc3c(cc2OC)OCO3)c(OC)c1,T/C,[1],91 % of control
same,T/C,[2],87 % of control
same,T/C,[3],87 % of control
COC(=O)c1c(C(=O)OC)c(-c2cccc(Cl)c2)n2c1CCC2,T/C,"dose: 25.0 mg/kg/injection, schedule: Q01DX005 (ip), vehicle: saline with Tween-80",98 % of control
same,T/C,[4],100 % of control
same,T/C,[5],100 % of control and 93 % of control
same,T/C,[6],100 % of control
CCO/C=N/c1[nH]c(C)c(C)c1C#N,T/C,"dose: 50.0 mg/kg/injection, schedule: Q01DX009 (ip), vehicle: Klucel (hydroxypropylcellulose) (HPC)",93 % of control
same,T/C,[7],100 % of control
same,T/C,"dose: 200.0 mg/kg/injection, schedule: Q01DX009 (ip), vehicle: Klucel (hydroxypropylcellulose) (HPC)",105 % of control
COc1ccccc1C1OC(c2ccccc2OC)C2CCN(C)C2(C)O1 (stereo not given),T/C,[8],92 % of control
same,T/C,[9],91 % of control
same,T/C,"dose: 400.0 mg/kg/injection, schedule: Q04DX002 (ip), vehicle: saline with Tween-80",101 % of control
Nc1ccc(/C=C/c2ccc(N)cc2S(=O)(=O)O)c(S(=O)(=O)O)c1,T/C,"dose: 25.0 mg/kg/injection, schedule: Q01DX009 (ip), vehicle: suspension in saline",99 % of control
same,T/C,"dose: 50.0 mg/kg/injection, schedule: Q01DX009 (ip), vehicle: saline",104 % of control
same,T/C,"dose: 50.0 mg/kg/injection, schedule: Q01DX009 (ip), vehicle: suspension in saline",95 % of control
same,T/C,"dose: 100.0 mg/kg/injection, schedule: Q01DX009 (ip), vehicle: saline",104 % of control
same,T/C,"dose: 100.0 mg/kg/injection, schedule: Q01DX009 (ip), vehicle: suspension in saline",99 % of control
same,T/C,"dose: 200.0 mg/kg/injection, schedule: Q01DX009 (ip), vehicle: saline",108 % of control
same,T/C,"dose: 200.0 mg/kg/injection, schedule: Q01DX009 (ip), vehicle: suspension in saline",107 % of control
same,T/C,"dose: 400.0 mg/kg/injection, schedule: Q01DX009 (ip), vehicle: saline",110 % of control
C[Si](C)(CCCNCCN)O[Si](C)(C)CCCNCCN,T/C,"dose: 15.0 mg/kg/injection, schedule: Q01DX005 (ip), vehicle: saline with Tween-80",104 % of control
same,T/C,"dose: 30.0 mg/kg/injection, schedule: Q01DX005 (ip), vehicle: saline with Tween-80",118 % of control
same,T/C,[1],94 % of control and 96 % of control
CN(C)CCCNC(=O)Cc1cc(O)c2c(c1O)C(=O)c1ccccc1C2=O,T/C,"dose: 25.0 mg/kg/injection, schedule: Q04DX003 (ip), vehicle: saline with Tween-80",106 % of control
same,T/C,"dose: 50.0 mg/kg/injection, schedule: Q04DX003 (ip), vehicle: saline with Tween-80",106 % of control
same,T/C,"dose: 100.0 mg/kg/injection, schedule: Q04DX003 (ip), vehicle: saline with Tween-80",104 % of control and 123 % of control
same,T/C,"dose: 200.0 mg/kg/injection, schedule: Q04DX003 (ip), vehicle: saline with Tween-80",120 % of control and 95 % of control
CC(=O)Nc1ccc(CN2CC(C)N(N)C(C)C2)cc1 (stereo not given),T/C,"dose: 25.0 mg/kg/injection, schedule: Q04DX003 (ip), vehicle: Klucel (hydroxypropylcellulose) (HPC)",101 % of control
same,T/C,"dose: 50.0 mg/kg/injection, schedule: Q04DX003 (ip), vehicle: Klucel (hydroxypropylcellulose) (HPC)",98 % of control
same,T/C,"dose: 100.0 mg/kg/injection, schedule: Q04DX003 (ip), vehicle: Klucel (hydroxypropylcellulose) (HPC)",95 % of control
same,T/C,"dose: 200.0 mg/kg/injection, schedule: Q04DX003 (ip), vehicle: Klucel (hydroxypropylcellulose) (HPC)",100 % of control
same,T/C,"dose: 400.0 mg/kg/injection, schedule: Q04DX003 (ip), vehicle: Klucel (hydroxypropylcellulose) (HPC)",104 % of control
NC(CCC(=O)NCC(=O)NCC(=O)O)C(=O)O (stereo not drawn) (ξγGlu-Gly-Gly-OH),T/C,"dose: 50.0 mg/kg/injection, schedule: Q01DX005 (ip), vehicle: saline",100 % of control
same,T/C,"dose: 100.0 mg/kg/injection, schedule: Q01DX005 (ip), vehicle: saline",97 % of control
same,T/C,"dose: 200.0 mg/kg/injection, schedule: Q01DX005 (ip), vehicle: saline",102 % of control
Cc1c(C)[n+](=O)c2ccc(/C=N/N3CCOC3=O)cc2n1[O-],T/C,"dose: 6.25 mg/kg/injection, schedule: Q01DX009 (ip), vehicle: Klucel (hydroxypropylcellulose) (HPC)",106 % of control
same,T/C,"dose: 12.5 mg/kg/injection, schedule: Q01DX009 (ip), vehicle: Klucel (hydroxypropylcellulose) (HPC)",97 % of control
same,T/C,"dose: 25.0 mg/kg/injection, schedule: Q01DX009 (ip), vehicle: Klucel (hydroxypropylcellulose) (HPC)",102 % of control
same,T/C,[7],90 % of control
CC1=CC(C)(C)Nc2ccc(OC(=O)/C=C(C)/C=C/C=C(C)/C=C/C3=C(C)CCCC3(C)C)cc21,T/C,[1],94 % of control
same,T/C,[2],91 % of control
same,T/C,[3],94 % of control
CC1OC(CC(=O)O)Cc2c1c(O)c1c(O)cc(-c3cc(=O)c4c(=O)c5c(c(=O)c=4c3=O)CC(CC(=O)O)OC5C)c(O)c1c2O (stereo not given),T/C,"dose: 6.25 mg/kg/injection, schedule: Q01DX009 (ip), vehicle: saline with Tween-80",100 % of control
same,T/C,"dose: 12.5 mg/kg/injection, schedule: Q01DX009 (ip), vehicle: saline with Tween-80",102 % of control
same,T/C,"dose: 25.0 mg/kg/injection, schedule: Q01DX009 (ip), vehicle: saline with Tween-80",103 % of control
COc1cccc2c1C(=O)c1c(O)c3c(c(O)c1C2=O)C[C@@](O)(C(=O)O)C[C@@H]3OC1CC(N)C(O)C(C)O1 (stereo not given in full),T/C,"dose: 3.13 mg/kg/injection, schedule: Q01DX009 (ip), vehicle: water",88 % of control
same,T/C,"dose: 6.25 mg/kg/injection, schedule: Q01DX009 (ip), vehicle: water",123 % of control
same,T/C,"dose: 18.75 mg/kg/injection, schedule: Q01DX001 (ip), vehicle: water",114 % of control
same,T/C,"dose: 37.5 mg/kg/injection, schedule: Q01DX001 (ip), vehicle: water",121 % of control
same,T/C,"dose: 50.0 mg/kg/injection, schedule: Q01DX009 (ip), vehicle: water",155 % of control
same,T/C,"dose: 75.0 mg/kg/injection, schedule: Q01DX001 (ip), vehicle: water",114 % of control
same,T/C,"dose: 100.0 mg/kg/injection, schedule: Q01DX009 (ip), vehicle: water",158 % of control
same,T/C,"dose: 150.0 mg/kg/injection, schedule: Q01DX001 (ip), vehicle: water",122 % of control
same,T/C,"dose: 300.0 mg/kg/injection, schedule: Q01DX001 (ip), vehicle: water",123 % of control
O=C(O)c1ccccc1.O=C(O)c1ccccc1.O=C(O)c1ccccc1.O=C(O)c1ccccc1.[Cu].[Cu],T/C,"dose: 7.5 mg/kg/injection, schedule: Q01DX005 (ip), vehicle: Klucel (hydroxypropylcellulose) (HPC)",99 % of control
same,T/C,"dose: 15.0 mg/kg/injection, schedule: Q01DX005 (ip), vehicle: Klucel (hydroxypropylcellulose) (HPC)",97 % of control
Oc1cc(O)cc(/C=C/c2ccc(O)c(O)c2)c1,T/C,"dose: 3.12 mg/kg/injection, schedule: Q01DX009 (ip), vehicle: DMSO",109 % of control
same,T/C,"dose: 6.25 mg/kg/injection, schedule: Q01DX009 (ip), vehicle: DMSO",114 % of control
same,T/C,"dose: 12.5 mg/kg/injection, schedule: Q01DX009 (ip), vehicle: DMSO",118 % of control
same,T/C,"dose: 25.0 mg/kg/injection, schedule: Q01DX009 (ip), vehicle: DMSO",123 % of control
Cn1c(C(=O)N/N=C\C2OC3OC(C)(C)OC3C3OC(C)(C)OC23)cc2cc(OCc3ccccc3)ccc21 (stereo not given),T/C,"dose: 50.0 mg/kg/injection, schedule: Q01DX005 (ip), vehicle: Klucel (hydroxypropylcellulose) (HPC)",103 % of control
same,T/C,"dose: 100.0 mg/kg/injection, schedule: Q01DX005 (ip), vehicle: Klucel (hydroxypropylcellulose) (HPC)",101 % of control
same,T/C,"dose: 200.0 mg/kg/injection, schedule: Q01DX005 (ip), vehicle: Klucel (hydroxypropylcellulose) (HPC)",97 % of control
CCOC(=O)C(N=Nc1ccc(Br)c(C)c1)C(C)=O (stereo not given),T/C,[4],107 % of control
same,T/C,[5],93 % of control
same,T/C,[6],97 % of control
CCOC(=O)c1cccc([N+](=O)[O-])c1C(=O)OCCN(CC)CC,T/C,[8],100 % of control
same,T/C,[9],122 % of control
O=[N+]([O-])c1ccc2[nH]ncc2c1,T/C,"dose: 50.0 mg/kg/injection, schedule: Q01DX009 (ip), vehicle: saline with Tween-80",100 % of control
same,T/C,"dose: 100.0 mg/kg/injection, schedule: Q01DX009 (ip), vehicle: saline with Tween-80",100 % of control
same,T/C,"dose: 200.0 mg/kg/injection, schedule: Q01DX009 (ip), vehicle: saline with Tween-80",110 % of control
